Here are results for eleven compounds from PubChem BioAssay AID216 (DTP/NCI, 2004).

“And” between values parts separate entries of the source, which are not always exact repeats. Identical values can stand only once. Toxic doses and inconclusive results are not listed.

The test has as its system BDF1 mice, P288 leukemia ip, survival T/C. The experiment in a line: NCI In Vivo Anticancer Drug Screen. Data for tumor model P288 Lymphocytic Leukemia (intraperitoneal) in B6D2F1 (BDF1) mice. The settings on record: endpoint: survival time, mean or median, higher = longer survival. As for the experimental part: The antitumor activity of compounds was measured in mice bearing transplantable tumors. Survival or tumor size were measured and the results are expressed as the measurement made in the treated group (T) divided by the measurement made in the vehicle treated control group (C). The tumor model used in this assay is P288 Lymphocytic Leukemia (intraperitoneal) in B6D2F1 (BDF1) mice

Where [1] appears, read: dose: 125.0 mg/kg/injection, schedule: Q01DX Z (ip), vehicle: saline.
The mark [2] stands for this setting: dose: 31.3 mg/kg/injection, schedule: Q01DX010 (ip), vehicle: saline.
Where [3] appears, read: dose: 62.5 mg/kg/injection, schedule: Q01DX010 (ip), vehicle: saline.

Take `O=P1(N(CCCl)CCCl)NCCCO1` (stereo not given): the T/C runs as follows: (dose: 11.3 mg/kg/injection, schedule: Q01DX010 (ip), vehicle: saline) 119 % of control; (dose: 12.5 mg/kg/injection, schedule: Q01DX Z (ip), vehicle: saline) 102 % of control and 106 % of control; (dose: 25.0 mg/kg/injection, schedule: Q01DX Z (ip), vehicle: saline) 113 % of control and 116 % of control; (dose: 45.0 mg/kg/injection, schedule: Q01DX010 (ip), vehicle: saline) 150 % of control and 198 % of control; (dose: 50.0 mg/kg/injection, schedule: Q01DX Z (ip), vehicle: saline) 112 % of control and 113 % of control; (dose: 62.5 mg/kg/injection, schedule: Q01DX Z (ip), vehicle: saline) 124 % of control. The T/C is, setting by setting: (dose: 90.0 mg/kg/injection, schedule: Q01DX010 (ip), vehicle: saline) 158 % of control; (dose: 100.0 mg/kg/injection, schedule: Q01DX Z (ip), vehicle: saline) 152 % of control; under setting [1], 113 % of control; (dose: 180.0 mg/kg/injection, schedule: Q01DX010 (ip), vehicle: saline) 91 % of control; (dose: 200.0 mg/kg/injection, schedule: Q01DX Z (ip), vehicle: saline) 86 % of control and 95 % of control.

As to `CS(=O)(=O)OCCN(CCOS(C)(=O)=O)c1ccc(N=O)cc1`, the T/C was 121 % of control (dose: 0.5 mg/kg/injection, schedule: Q01DX010 (ip), vehicle: saline); 90 % of control and 94 % of control (dose: 2.0 mg/kg/injection, schedule: Q01DX010 (ip), vehicle: saline).

For the compound `CC(=O)Nc1ccc(/C=N/Nc2ccc([N+](=O)[O-])cn2)cc1`, the T/C is 89 % of control under setting [2]; 89 % of control under setting [3]; 89 % of control (dose: 250.0 mg/kg/injection, schedule: Q01DX010 (ip), vehicle: saline).

For the compound `Nc1ncnc2[nH]ncc12`, the T/C (dose: 1.5 mg/kg/injection, schedule: Q01DX010 (ip), vehicle: saline) was 93 % of control and 100 % of control; the T/C (dose: 3.0 mg/kg/injection, schedule: Q01DX010 (ip), vehicle: saline) is 107 % of control and 100 % of control; the T/C (dose: 6.0 mg/kg/injection, schedule: Q01DX010 (ip), vehicle: saline) is 100 % of control; the T/C (dose: 6.25 mg/kg/injection, schedule: Q01DX Z (ip), vehicle: carboxymethylcellulose (CMC)) was 92 % of control; the T/C (dose: 12.0 mg/kg/injection, schedule: Q01DX010 (ip), vehicle: saline) is 112 % of control; the T/C (dose: 12.5 mg/kg/injection, schedule: Q01DX Z (ip), vehicle: carboxymethylcellulose (CMC)) is 94 % of control. Moreover, the T/C (dose: 25.0 mg/kg/injection, schedule: Q01DX Z (ip), vehicle: carboxymethylcellulose (CMC)) is 94 % of control.

On to `[I][Hg][CH2]C1COC([CH2][Hg][I])CO1` (stereo not given), for which the T/C was 97 % of control (dose: 0.95 mg/kg/injection, schedule: Q01DX Z (ip), vehicle: carboxymethylcellulose (CMC)); 94 % of control (dose: 1.9 mg/kg/injection, schedule: Q01DX Z (ip), vehicle: carboxymethylcellulose (CMC)); 90 % of control (dose: 3.75 mg/kg/injection, schedule: Q01DX Z (ip), vehicle: carboxymethylcellulose (CMC)); 100 % of control (dose: 6.25 mg/kg/injection, schedule: Q01DX010 (ip), vehicle: saline); 100 % of control (dose: 12.5 mg/kg/injection, schedule: Q01DX010 (ip), vehicle: saline); 94 % of control (dose: 15.0 mg/kg/injection, schedule: Q01DX Z (ip), vehicle: carboxymethylcellulose (CMC)). The T/C by setting is: (dose: 25.0 mg/kg/injection, schedule: Q01DX010 (ip), vehicle: saline) 100 % of control; (dose: 50.0 mg/kg/injection, schedule: Q01DX010 (ip), vehicle: saline) 88 % of control.

For the compound `Nc1c(Br)cc2c(c1Br)Cc1cc([N+](=O)[O-])ccc1-2`, the T/C by setting is: (dose: 15.6 mg/kg/injection, schedule: Q01DX010 (ip), vehicle: saline) 122 % of control; under setting [2], 116 % of control; under setting [3], 111 % of control and 116 % of control; (dose: 125.0 mg/kg/injection, schedule: Q01DX010 (ip), vehicle: saline) 116 % of control and 94 % of control; (dose: 500.0 mg/kg/injection, schedule: Q01DX010 (ip), vehicle: saline) 88 % of control.

As to `Cn1c(N)nc2nc[nH]c2c1=S`, the T/C was 90 % of control (dose: 3.1 mg/kg/injection, schedule: Q01DX Z (ip), vehicle: carboxymethylcellulose (CMC)); 100 % of control (dose: 10.0 mg/kg/injection, schedule: Q01DX010 (ip), vehicle: saline); 100 % of control (dose: 20.0 mg/kg/injection, schedule: Q01DX010 (ip), vehicle: saline); 100 % of control (dose: 40.0 mg/kg/injection, schedule: Q01DX010 (ip), vehicle: saline); 106 % of control (dose: 80.0 mg/kg/injection, schedule: Q01DX010 (ip), vehicle: saline).

In the case of `COC12C(COC(N)=O)C3=C(C(=O)C(C)=C(N)C3=O)N1CC1C2N1C` (stereo not given), the T/C (dose: 0.31 mg/kg/injection, schedule: Q01DX Z (ip), vehicle: carboxymethylcellulose (CMC)) was 110 % of control; the T/C (dose: 0.63 mg/kg/injection, schedule: Q01DX Z (ip), vehicle: carboxymethylcellulose (CMC)) is 120 % of control; the T/C (dose: 1.25 mg/kg/injection, schedule: Q01DX Z (ip), vehicle: carboxymethylcellulose (CMC)) is 114 % of control; the T/C (dose: 5.0 mg/kg/injection, schedule: Q01DX Z (ip), vehicle: carboxymethylcellulose (CMC)) is 156 % of control; the T/C (dose: 10.0 mg/kg/injection, schedule: Q01DX Z (ip), vehicle: carboxymethylcellulose (CMC)) was 167 % of control; the T/C (dose: 20.0 mg/kg/injection, schedule: Q01DX Z (ip), vehicle: carboxymethylcellulose (CMC)) was 93 % of control.

Regarding `OCC1OC(n2cnc3c(Cl)ncnc32)C(O)C1O` (stereo not given), the T/C reads like this: (dose: 62.5 mg/kg/injection, schedule: Q01DX Z (ip), vehicle: carboxymethylcellulose (CMC)) 104 % of control; (dose: 125.0 mg/kg/injection, schedule: Q01DX Z (ip), vehicle: carboxymethylcellulose (CMC)) 101 % of control; (dose: 250.0 mg/kg/injection, schedule: Q01DX Z (ip), vehicle: carboxymethylcellulose (CMC)) 92 % of control; (dose: 500.0 mg/kg/injection, schedule: Q01DX Z (ip), vehicle: carboxymethylcellulose (CMC)) 106 % of control.

Take `C[C@]12C=CC(=O)C=C1CC[C@@H]1[C@@H]2C(=O)C[C@@]2(C)[C@H]1CC[C@]2(O)C(=O)CO`: the T/C was 105 % of control (dose: 12.5 mg/kg/injection, schedule: Q01DX010 (sc), vehicle: steriod suspending solution); 103 % of control (dose: 25.0 mg/kg/injection, schedule: Q01DX010 (sc), vehicle: steriod suspending solution); 111 % of control and 87 % of control (dose: 50.0 mg/kg/injection, schedule: Q01DX010 (sc), vehicle: steriod suspending solution); 102 % of control and 100 % of control (dose: 50.0 mg/kg/injection, schedule: Q01DX Z (sc), vehicle: steriod suspending solution); 100 % of control (dose: 100.0 mg/kg/injection, schedule: Q01DX010 (sc), vehicle: steriod suspending solution); 102 % of control and 111 % of control (dose: 100.0 mg/kg/injection, schedule: Q01DX Z (sc), vehicle: steriod suspending solution). The T/C reads like this: (dose: 200.0 mg/kg/injection, schedule: Q01DX010 (sc), vehicle: steriod suspending solution) 97 % of control; (dose: 200.0 mg/kg/injection, schedule: Q01DX Z (sc), vehicle: steriod suspending solution) 90 % of control and 100 % of control; (dose: 400.0 mg/kg/injection, schedule: Q01DX Z (sc), vehicle: steriod suspending solution) 94 % of control.

For the compound `CC(=O)N(C)C`, the T/C is, setting by setting: (dose: 31.0 mg/kg/injection, schedule: Q01DX Z (ip), vehicle: saline) 103 % of control; under setting [1], 100 % of control; (dose: 250.0 mg/kg/injection, schedule: Q01DX Z (ip), vehicle: saline) 93 % of control; (dose: 500.0 mg/kg/injection, schedule: Q01DX Z (ip), vehicle: saline) 88 % of control; (dose: 2000.0 mg/kg/injection, schedule: Q01DX Z (ip), vehicle: saline) 88 % of control.
